Data on two molecules can be found in US20120164104A1, “Composition and Methods of Treating Viral Infections and Viral Induced Tumors” (Chimerix, Inc., priority 2009, published 2012).

pIC50: −log10 of the molar value.

One test deals with SiHa. Kind of test: Cell proliferation assay (MTS or SRB), SiHa. Conditions: Homo sapiens, 72 h, Cervical, 3 days, read-out: IC50 (cell growth inhibition). The format is cell-based, human. As to the method:
(§1) In vitro cell proliferation assays were performed using a 96-well plate based MTSassay (CellTiter 96° AqueousOne Solution Cell Proliferation Assay, Promega) or SRB (Sulforhodamine-B) assay (1-3). Briefly, cells were plated in 100 μl medium on day 0 in 96-well microtiter plates (Falcon #3072). On day 1, 10 μl of serial dilutions of each compound (Nine 1:2 dilutions with a starting concentration of 100 μM; in some cases, a starting concentration of 400 μM (CMX001 or Cidofovir) or 1 μM (some standard agents)) were added in triplicates to the plates. For standard agents using DMSO as solvent, serial dilutions of DMSO with a starting concentration of 0.5% were also included as a vehicle control.
(§2) After incubation for 3 days at 37° C. in a humidified incubator, viable cells were measured either by MTS or SRB assay. For MTS assay, 20 μl of a 20:1 mixture of (3-(4,5-dimethylthiazol-2-yl)-5-(3-carboxymethoxyphenyl)-2-(4-sulfophenyl)-2H-tetrazolium, inner salt (MTS, 2 mg/ml) and an electron coupling reagent, phenazine methosulfate (PMS, 0.92 mg/ml in DPBS), was added to each well and incubated for 3 hours at 37° C. Absorbance was measured using a BioTek Synergy™ HT Multiple Detection microplate reader at 490 nm. For SRB assay, cells were fixed in situ with 50 μL of cold trichloroacetic acid (TCA, final concentration at 10% w/v) for 60 minutes. Cells were then washed 5 times with H2O and air-dried.
(§3) Next, cells were stained with 20 μL of 0.2% SRB in 1% acetic acid and incubated at room temperature for 30 minutes and unbound SRB was removed by washing 5 times with 1% acetic acid and air-dried. Finally, bound SRB stain was solubilized in 50 μL of 50 μM Tris buffer before taking an optical density measurement at 570 nm using the BioTek microplate reader. The growth inhibition data were expressed as the percentage of cell survival calculated from the background corrected absorbance. The surviving fraction of cells was determined by dividing the mean absorbance values of the test agent-treated samples by the mean absorbance values of untreated control. […]

For a further test, the system named is A549. Kind of test: Cell proliferation assay (MTS or SRB), A549. In kind it is cell-based. The following applies: Homo sapiens, 72 h; A549, Lung, 3 days; read-out: IC50 (cell growth inhibition). On the procedure:
as §1, §2, §3

Another test has as its system C33A. Briefly: Cell proliferation assay (MTS or SRB), C33A. The following applies: Homo sapiens, C-33-A, 72 h, Cervical, 3 days, read-out: IC50 (cell growth inhibition). In kind it is cell-based, human. As to the method: as §1, §2, §3
Another test has as its system Caki-1. Briefly: Cell proliferation assay (MTS or SRB), Caki-1. In kind it is cell-based. The following applies: Homo sapiens, 72 h; Caki-1, Kidney, 3 days; read-out: IC50 (cell growth inhibition). As to the method:
as §1, §2, §3

The subject of another test is MIA PaCa-2. Briefly: Cell proliferation assay (MTS or SRB), MIA PaCa-2. The format is cell-based. Conditions: Homo sapiens, 72 h; MIA PaCa-2, Pancreatic, 3 days; read-out: IC50 (cell growth inhibition). On the procedure:
as §1, §2, §3

The next test deals with BKV(Dunlop). The following applies: BKV-infected RPTECs, Bernhoff et al., 2008, cited from earlier work.
For a further test, the system named is A2058. Briefly: Cell proliferation assay (MTS or SRB), A2058. In kind it is cell-based. The following applies: Homo sapiens, 72 h; A2058, Skin (melanoma), 3 days; read-out: IC50 (cell growth inhibition). On the procedure: as §1, §2
Next, cells were stained with 20 μL of 0.2% SRB in 1% acetic acid and incubated at room temperature for 30 minutes and unbound SRB was removed by washing 5 times with 1% acetic acid and air-dried. Finally, bound SRB stain was solubilized in 50 μL of 50 μM Tris buffer before taking an optical density measurement at 570 nm using the BioTek microplate reader. The growth inhibition data were expressed as the percentage of cell survival calculated from the background corrected absorbance. The surviving fraction of cells was determined by dividing the mean absorbance values of the test agent-treated samples by the mean absorbance values of untreated control.
Raw data were acquired using a BioTek Synergy™ HT Multiple Detection microplate reader and imported into Microsoft Excel for analysis. The average signal of each treatment was calculated from the triplicates after subtracting the blank signals. The percentage survival values were calculated using the following formula: % survival=(average signal of the drug treatment/average signal of untreated controls)×100. The data were finally imported into the Prism 4 software (GraphPad Software, San Diego, Calif.) to generate the dose-activity curves using non-linear regression curve fit and to calculate the IC50 values.

The next test has as its system THLE-3. Kind of test: Cell proliferation assay (MTS or SRB), THLE-3. In kind it is cell-based. The following applies: Homo sapiens, THLE3, 72 h; THLE-3, Liver (Normal), SV40 large T immortalized, 3 days; read-out: IC50 (cell growth inhibition). As to the method:
as §1
After incubation for 3 days at 37° C. in a humidified incubator, viable cells were measured either by MTS or SRB assay. […]
Next, cells were stained with 20 μL of 0.2% SRB in 1% acetic acid and incubated at room temperature for 30 minutes and unbound SRB was removed by washing 5 times with 1% acetic acid and air-dried. Finally, bound SRB stain was solubilized in 50 μL of 50 μM Tris buffer before taking an optical density measurement at 570 nm using the BioTek microplate reader. The growth inhibition data were expressed as the percentage of cell survival calculated from the background corrected absorbance. […]

For another test, the system named is tumor cell lines. Kind of test: Cell proliferation assay (MTS or SRB), panel of human tumor cell lines. The format is cell-based. The following applies: 22 tumor cell lines, read-out: IC50 values in the tumor cell lines (range over panel). On the procedure: The cell growth inhibitory activities of CMX001, Cidofovir, and a standard agent (varies depending on the tumor type of the cell lines) were evaluated in a panel of cell lines derived from multiple tumor types using a MTS or SRB based cell proliferation assay.
In vitro cell proliferation assays were performed using a 96-well plate based MTSassay (CellTiter 96° AqueousOne Solution Cell Proliferation Assay, Promega) or SRB (Sulforhodamine-B) assay (1-3). Briefly, cells were plated in 100 μl medium on day 0 in 96-well microtiter plates (Falcon #3072). […]
as §2, with “air-dried. […]” for “air-dried.”
Raw data were acquired using a BioTek Synergy™ HT Multiple Detection microplate reader and imported into Microsoft Excel for analysis. […]

The next test concerns JCV Mad-4. Briefly: Extracellular JCV load in JCV-infected astrocyte cells (qPCR). Conditions: in the presence of CMX001. The format is cell-based. On the procedure:
FIG. 17 illustrates the effect of increasing concentrations of CMX001 on extracellular viral load in astrocytes. Supernatants from JCV-infected PDA cells treated with indicated concentrations of CMX001 were harvested at indicated timepoints after infection and JCV load measured by qPCR. Data are presented as JCV load in log geq/ml. COS-7 or astrocyte cells were infected at a confluence of 60-70% with JCV(Mad-4) at an estimated TCID50 of 0.2. After 2 h incubation at 37° C., supernatants were replaced with fresh medium without or with increasing concentration CMX001. […] JCV loads were quantified after DNA extraction from 100 ul cell culture supernatants and the Corbett X-tractor Gene and the Corbett VX reagents (Qiagen, Hombrechtikon, Switzerland). The real-time PCR protocol for detection of JCV DNA samples targets the JCV large T coding sequence and has been described elsewhere (5). To examine the effect of CMX001 on JCV progeny levels over time, supernatants of treated and untreated cells were harvested at the indicated timepoints. To determine input virus samples were taken at 1 d.p.i. In the course of the infection for untreated cells, the extracellular JCV load changes approximately 1 log over the period of 7 days (3.22×107 vs 2.30×108 geq/ml).

The subject of a further test is COS-7 cells. Kind of test: DNA replication of uninfected COS-7 cells (BrdU assay). In kind it is cell-based. The following applies: Chlorocebus aethiops. As to the method:
FIG. 14 illustrates the effect of increasing concentrations of CMX001 on replication of COS-7 cells. DNA replication was determined by BrdU incorporation. Medium with indicated CMX001 concentrations was added to COS-7 cells and absorbance measured 72 h post seeding. Absorbance for untreated cells was set as 100%. DNA synthesis was quantified by the colorimetric measurement of BrdU incorporation into DNA in proliferating cells using the ‘Cell proliferation ELISA, BrdU’ kit (Roche). COS-7 cells were seeded in 96 well plates and CMX001 was added at indicated concentrations. Absorbance at 450 nm (sample) and at 650 nm (background) was determined 2 h after addition of the substrate.

Turning to `Nc1ccn(C[C@@H](CO)OCP(=O)(O)O)c(=O)n1` [cidofovir], the pIC50 was 4.00 in the test on SiHa; under 4.00 with A549; 4.01 in the test on C33A; under 4.00 in the test on Caki-1; under 4.00 in the test on MIA PaCa-2; under 4.00 with A2058. The pIC50 with THLE-3 was under 4.00. For the same molecule, in the test with BKV(Dunlop), the “concentration of CDV inhibiting BKV (IC90)” value is 40 µg/mL. For the same molecule, the IC90 with BKV(Dunlop) (read-out: concentration of CDV inhibiting BKV (IC90)) is 127 µM.

`CCCCCCCCCCCCCCCCOCCCOP(=O)(O)CO[C@H](CO)Cn1ccc(N)nc1=O` [CMX001]: the negative-log IC50 (pIC50) is 4.37 in the test on SiHa; under 4.00 in the test with A549; 4.84 with C33A; 4.16 in the test with Caki-1; 4.84 in the test with MIA PaCa-2; 4.00 to 5.18 in the test with tumor cell lines. The pIC50 in the test with COS-7 cells is about 6.22; in the test on A2058 it was 4.66; with THLE-3, 5.15. The “change in JCV load over 7 days” value in the test on JCV Mad-4 was “less than 1 log”.
